Results on three molecules are retold here after paper PMC3863468 (BioMed Research International, 2013).

Data set [1] in a line: Pharmacokinetic experiment: serum imatinib and N-desmethyl imatinib by HPLC after oral imatinib with or without apigenin. The following applies: for AUC(0–t) / AUC(0–∞) / C max / CLz/F / MRT(0–t) / MRT(0–∞) / T max / Vz/F / t (1/2)z: then single oral 30 mg/kg imatinib, rat serum, n = 5. The procedure: HPLC system (Agilent 1100) was equipped with quaternary pump, on-line vacuum degasser, autosampler, column compartment, diode array detector, and Agilent Chem Station Rev A.10.02. […] The detection wavelength was 282 nm, and the injection volume was 20.0 μL.
The serum samples were prepared using liquid-liquid extraction technique. A 300 μL aliquot of the serum sample was taken in a 10 mL glass test tube, and on that 20 μL of IS (100 μg/mL) was spiked and 150 μL of sodium hydroxide solution (0.01 moL/L) was added. After vortex mixing for 30 s, 3 mL of ethyl acetate was added, and the mixture was vortexed for 1 min and then centrifuged at 3000 ×g for 5 min. The organic layer was transferred into another 5 mL tube and evaporated to dryness under a stream of nitrogen gas at 40°C. The residue was reconstituted in 100 μL of mobile phase and vortex-mixed for 1 min, and 20 μL of aliquot was injected into the HPLC system for analysis.
Experimental values were expressed as x-±s . Statistical analyses of main pharmacokinetic parameters were performed by Student's unpaired test using SPSS 16.0 software. A value of P < 0.05 was considered to be significant between two groups.

The conditions of data set [2]: cited from earlier work.
Where [3] appears, read: group B: apigenin 165 mg/kg for 15 days.
Setting [4] is: group C: single dose apigenin 165 mg/kg.
The mark [5] stands for this setting: group D (single dose apigenin 252 mg/kg) vs group B, rats, 30 mg/kg imatinib.
Where [6] appears, read: group D: single dose apigenin 252 mg/kg.
The mark [7] stands for this setting: short-term 165 mg/kg apigenin (group C), printed comparison with group B, rats, 30 mg/kg imatinib.

For the molecule `Cc1ccc(NC(=O)c2ccc(CN3CCNCC3)cc2)cc1Nc1nccc(-c2cccnc2)n1` [N-desmethyl imatinib], in data set [1] (group A: control (0.5% CMC-Na)), the “AUC(0–t)” value was determined as 5977 ± 1626 ng·h/mL, the “AUC(0–∞)” value came to 6827 ± 2595 ng·h/mL, the C max amounted to 678 ± 147 ng/mL and the CLz/F turned out to be 81.9 ± 29.7 mL/min/kg. In addition, in data set [1] (group A: control (0.5% CMC-Na)), the “MRT(0–t)” value is listed as 7.085 ± 1.135 h, the “MRT(0–∞)” value came out at 9.718 ± 4.636 h, the T max is listed as 3.6 ± 0.894 h and the Vz/F amounted to 32.8 ± 10.3 L/kg. The “t (1/2)z” value in data set [1] (group A: control (0.5% CMC-Na)) came out at 5.495 ± 3.92 h. Further, in data set [1] (group B (apigenin 165 mg/kg for 15 days) vs group A (control), rats), the “main pharmacokinetic parameters, difference between group A and group B” value is reported as “no great differences”. For the same molecule, in data set [1] (setting [3]), the “AUC(0–t)” value was 6335 ± 1105 ng·h/mL, the “AUC(0–∞)” value stood at 6672 ± 797 ng·h/mL, the C max was determined as 797 ± 73 ng/mL and the CLz/F was 75.9 ± 9.87 mL/min/kg. Moreover, in data set [1] (setting [3]), the “MRT(0–t)” value turned out to be 6.573 ± 0.544 h, the “MRT(0–∞)” value was determined as 7.504 ± 0.189 h, the T max was 4.0 ± 0.003 h and the Vz/F came out at 26.8 ± 4.49 L/kg. Moreover, the “t (1/2)z” value in data set [1] (setting [3]) is recorded as 4.083 ± 0.436 h. In data set [1] (setting [4]), the “AUC(0–t)” value came to 4797 ± 602 ng·h/mL, the “AUC(0–∞)” value is 5050 ± 797 ng·h/mL, the C max was 547 ± 91 ng/mL and the CLz/F worked out at 101 ± 16.5 mL/min/kg. Also, in data set [1] (setting [4]), the “MRT(0–t)” value is 7.227 ± 0.525 h, the “MRT(0–∞)” value is recorded as 8.397 ± 1.545 h, the T max came to 4.0 ± 0.005 h and the Vz/F stood at 40.7 ± 12.8 L/kg. For the same molecule, the “t (1/2)z” value in data set [1] (setting [4]) is 4.906 ± 2.093 h. In data set [1] (setting [5]), the “C max reduced compared with group B” value is given as 19.82% and the “V z/F decrease compared with group B” value is 62.10%. For the same molecule, in data set [1] (setting [6]), the “AUC(0–t)” value is 5262 ± 890 ng·h/mL, the “AUC(0–∞)” value was found to be 5545 ± 814 ng·h/mL, the C max amounted to 639 ± 130 ng/mL and the CLz/F was determined as 91.8 ± 13.9 mL/min/kg. In data set [1] (setting [6]), the “MRT(0–t)” value is 7.326 ± 0.53 h, the “MRT(0–∞)” value amounted to 8.679 ± 1.301 h, the T max stood at 3.8 ± 0.447 h and the Vz/F was 43.5 ± 16.1 L/kg. For the same molecule, the “t (1/2)z” value in data set [1] (setting [6]) amounted to 5.376 ± 1.495 h. Moreover, in data set [1] (setting [7]), the “AUC(0−t) increased in comparison with group B” value is reported as 19.7% and the “C max increased in comparison with group B” value was determined as 19.3%.

For the molecule `O=c1cc(-c2ccc(O)cc2)oc2cc(O)cc(O)c12` [apigenin, reference compound], the “dose dependence of effect on imatinib” value in data set [1] (252 mg/kg vs 165 mg/kg short-time apigenin, rats) was “not dose dependent”. Also, the “effect on the metabolism of imatinib in vivo” value in data set [1] (long-term oral administration of apigenin (165 mg/kg for 15 days), rats) was “accelerated”; in data set [1] (single dose of apigenin, rats) it was “inhibited”.

Take `Cc1ccc(NC(=O)c2ccc(CN3CCN(C)CC3)cc2)cc1Nc1nccc(-c2cccnc2)n1` [imatinib, reference compound]: in data set [2], the oral bioavailability was around 97%. In addition, the “V z/F decreased (printed: in group B)” value in data set [1] (male, Sprague-Dawley, rat, in vivo, 30 mg/kg) turned out to be 55.1%. Moreover, in data set [1] (male, Sprague-Dawley, rat, in vivo, po, 30 mg/kg, AUC(0–t)), the AUC(0-t) stood at 90600 ± 11300 ng·h/mL. This molecule also yielded an AUC(0-inf) in data set [1] (male, Sprague-Dawley, rat, in vivo, po, 30 mg/kg, AUC(0–∞)) of 91000 ± 11600 ng·h/mL. The same molecule came in with a Cmax in data set [1] (male, Sprague-Dawley, rat, in vivo, po, 30 mg/kg, C max) of 12100 ± 2020 ng/mL. For the same molecule, the Tmax in data set [1] (male, Sprague-Dawley, rat, in vivo, po, 30 mg/kg, T max) came to 3 ± 1 h.
